Data: patent US20250282799A1, “SUBSTITUTED PYRIDO[4,3-d]PYRIMIDINES AS KRAS MODULATORS” (Alterome Therapeutics, Inc., priority 2023, published 2025)

Each compound was assayed on KRAS G12V dependent lung adenocarcinoma cell line, NCI-H441 (assay: Cellular pERK (Thr202/Tyr204) FRET/HTRF assay). Conditions: Homo sapiens, NCI-H441, cellular pERK (Thr202/Tyr204) HTRF, NCI-H441 cells.
Assay type: cell-based
Outline: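 Adherent NCI-H441 cells, plated the previous night, receive test compound for one hour at 37 °C. They are then lysed with a buffer containing phosphatase inhibitors and incubated at room temperature with Eu3+-cryptate and d2 labelled anti-pERK antibodies. HTRF signal gives IC50 by curve fitting.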

SMILES	IC50
C#Cc1c(F)ccc2cc(O)cc(-c3ncc4c(N5CCOC[C@H]6[C@H](F)[C@H]65)nc(OC[C@]56C[C@@H](F)CN5C[C@@H](CN)C6)nc4c3F)c12 [Example 198, 4-(2-(((2R,6R,7aS)-2-(aminomethyl)-6-fluorotetrahydro-1H-pyrrolizin-7a(5H)-yl)methoxy)-8-fluoro-4-((1S,7S,8S)-8-fluoro-5-oxa-2-azabicyclo[5.1.0]octan-2-yl)pyrido[4,3-d]pyrimidin-7-yl)-5-ethynyl-6-fluoronaphthalen-2-ol]	50 to 500 nM
[2H]C([2H])(Oc1nc(N2CCCC[C@H]3[C@H](F)[C@H]32)c2cnc(-c3cccc4c(F)cc(F)c(C#C)c34)c(F)c2n1)[C@@]12CCCN1C[C@H](F)C2 [Example 112, 7-(8-ethynyl-5,7-difluoronaphthalen-1-yl)-8-fluoro-4-((1S,7R,8S)-8-fluoro-2-azabicyclo[5.1.0]octan-2-yl)-2-(((2R,7aS)-2-fluorotetrahydro-1H-pyrrolizin-7a(5H)-yl)methoxy-d2)pyrido[4,3-d]pyrimidine]	50 to 500 nM
[2H]C([2H])([2H])Oc1c(F)c(F)c(F)c2cc(N)cc(-c3ncc4c(N5CCC=C[C@H]6[C@H](F)[C@H]65)nc(OC([2H])([2H])[C@@]56CCCN5C[C@H](F)C6)nc4c3F)c12 [Example 148, 6,7,8-Trifluoro-4-(8-fluoro-4-((1S,7R,8S)-8-fluoro-2-azabicyclo[5.1.0]oct-5-en-2-yl)-2-(((2R,7aS)-2-fluorotetrahydro-1H-pyrrolizin-7a(5H)-yl)methoxy-d2)pyrido[4,3-d]pyrimidin-7-yl)-5-(methoxy-d3)naphthalen-2-amine]	50 to 500 nM
[2H]C([2H])(Oc1nc(N2CCOC[C@H]3[C@H](F)[C@H]32)c2cnc(-c3cc(N)cc4ccc(F)c(C=C)c34)c(F)c2n1)[C@@]12CCCN1C[C@H](F)C2 [Example 199, 6-Fluoro-4-(8-fluoro-4-((1S,7S,8S)-8-fluoro-5-oxa-2-azabicyclo[5.1.0]octan-2-yl)-2-(((2R,7aS)-2-fluorotetrahydro-1H-pyrrolizin-7a(5H)-yl)methoxy-d2)pyrido[4,3-d]pyrimidin-7-yl)-5-vinylnaphthalen-2-amine]	< 50 nM
[2H]C([2H])(Oc1nc(N2CCOC[C@@H]3[C@H]2[C@@]3([2H])F)c2cnc(-c3cccc4cc(F)c(F)c(C#C)c34)c(F)c2n1)[C@@]12CCCN1C[C@H](F)C2 [Example 122, (1S,7S,8S)-2-(7-(8-ethynyl-6,7-difluoronaphthalen-1-yl)-8-fluoro-2-(((2R,7aS)-2-fluorotetrahydro-1H-pyrrolizin-7a(5H)-yl)methoxy-d2)pyrido[4,3-d]pyrimidin-4-yl)-8-fluoro-5-oxa-2-azabicyclo[5.1.0]octane-8-d]	< 50 nM
[2H]C([2H])([2H])Oc1c(F)c(F)c(F)c2cc(N)cc(-c3ncc4c(N5CCOC[C@H]6[C@H](F)[C@H]65)nc(OC[C@@]56CCCN5CC(=C)C6)nc4c3F)c12 [Example 125, 6,7,8-trifluoro-4-(8-fluoro-4-((1S,7S,8S)-8-fluoro-5-oxa-2-azabicyclo[5.1.0]octan-2-yl)-2-(((S)-2-methylenetetrahydro-1H-pyrrolizin-7a(5H)-yl)methoxy)pyrido[4,3-d]pyrimidin-7-yl)-5-(methoxy-d3)naphthalen-2-amine]	< 50 nM
C=C1CN2CCC[C@@]2(COc2nc(N3CCCC[C@@H]4[C@@H](F)[C@@H]43)c3cnc(-c4cc(N)cc(Cl)c4C(F)(F)F)c(F)c3n2)C1 [Example 368, 3-chloro-5-(8-fluoro-4-((1R,7S,8R)-8-fluoro-2-azabicyclo[5.1.0]octan-2-yl)-2-(((S)-2-methylenetetrahydro-1H-pyrrolizin-7a(5H)-yl)methoxy)pyrido[4,3-d]pyrimidin-7-yl)-4-(trifluoromethyl)aniline]	500 to 10000 nM

Continued, values first:

IC50	SMILES
50 to 500 nM	Cc1c(F)c(N)cc(-c2ncc3c(N4CCCC[C@H]5[C@H](F)[C@H]54)nc(OC[C@]45C/C(=C/F)CN4CCC54CC4)nc3c2F)c1C(F)(F)F [Example 381, 2-fluoro-5-(8-fluoro-4-((1S,7R,8S)-8-fluoro-2-azabicyclo[5.1.0]octan-2-yl)-2-(((R,Z)-6′-(fluoromethylene)tetrahydrospiro[cyclopropane-1,1′-pyrrolizin]-7a′(5′H)-yl)methoxy)pyrido[4,3-d]pyrimidin-7-yl)-3-methyl-4-(trifluoromethyl)aniline]
< 50 nM	C#Cc1c(F)ccc2cccc(-c3ncc4c(N5CCOC[C@H]6[C@H](F)[C@H]65)nc(OC[C@]56C/C(=C\F)CN5CCC65CC5)nc4c3F)c12 [Example 375, (1S,7S,8S)-2-(7-(8-Ethynyl-7-fluoronaphthalen-1-yl)-8-fluoro-2-(((R,E)-6′-(fluoromethylene)tetrahydrospiro[cyclopropane-1,1′-pyrrolizin]-7a′(5′H)-yl)methoxy)pyrido[4,3-d]pyrimidin-4-yl)-8-fluoro-5-oxa-2-azabicyclo[5.1.0]octane]
50 to 500 nM	C=C1CN2CCC3(CC3)[C@@]2(COc2nc(N3CCCC[C@H]4[C@H](F)[C@H]43)c3cnc(-c4cc(N)c(F)c(C)c4C(F)(F)F)c(F)c3n2)C1 [Example 379, 2-fluoro-5-(8-fluoro-4-((1S,7R,8S)-8-fluoro-2-azabicyclo[5.1.0]octan-2-yl)-2-(((R)-6′-methylenetetrahydrospiro[cyclopropane-1,1′-pyrrolizin]-7a′(5′H)-yl)methoxy)pyrido[4,3-d]pyrimidin-7-yl)-3-methyl-4-(trifluoromethyl)aniline]
< 50 nM	[2H]C([2H])(F)Oc1c(F)ccc2cccc(-c3ncc4c(N5CCOC[C@H]6[C@H](F)[C@H]65)nc(OC[C@]56C/C(=C/F)CN5CCC65CC5)nc4c3F)c12 [Example 386, (1S,7S,8S)-8-fluoro-2-(8-fluoro-7-(7-fluoro-8-(fluoromethoxy-d2)naphthalen-1-yl)-2-(((R,Z)-6′-(fluoromethylene)tetrahydrospiro[cyclopropane-1,1′-pyrrolizin]-7a′(5′H)-yl)methoxy)pyrido[4,3-d]pyrimidin-4-yl)-5-oxa-2-azabicyclo[5.1.0]octane]
500 to 10000 nM	Cc1c(F)c(N)cc(-c2ncc3c(N4CCCC[C@H]5[C@H](F)[C@H]54)nc(OC[C@@]45CCCN4C/C(=C/F)C5)nc3c2F)c1C(F)(F)F [Example 396, 2-fluoro-5-(8-fluoro-4-((1S,7R,8S)-8-fluoro-2-azabicyclo[5.1.0]octan-2-yl)-2-(((S,E)-2-(fluoromethylene)tetrahydro-1H-pyrrolizin-7a(5H)-yl)methoxy)pyrido[4,3-d]pyrimidin-7-yl)-3-methyl-4-(trifluoromethyl)aniline]

Same assay, conditions: Homo sapiens, NCI-H441, cellular pERK HTRF, NCI-H441 (KRAS G12V) cells

IC50	SMILES
500 to 10000 nM	[2H]C([2H])(Oc1nc(N2CCCC[C@@H]3[C@@H](Cl)[C@@H]32)c2cnc(-c3cc(N)cc4ccc(F)c(C#C)c34)c(C)c2n1)[C@@]12CCCN1C[C@H](F)C2 [Example 465, 4-(4-((1R,7S,8R)-8-chloro-2-azabicyclo[5.1.0]octan-2-yl)-2-(((2R,7aS)-2-fluorotetrahydro-1H-pyrrolizin-7a(5H)-yl)methoxy-d2)-8-methylpyrido[4,3-d]pyrimidin-7-yl)-5-ethynyl-6-fluoronaphthalen-2-amine]
< 50 nM	[2H]C([2H])(Oc1nc(N2CCOC[C@H]3[C@H](F)[C@H]32)c2cnc(-c3cc(N)cc4ccc(F)c(C#C)c34)c(C=C)c2n1)[C@@]12CCCN1C[C@H](F)C2 [Example 455, 5-ethynyl-6-fluoro-4-(4-((1S,7S,8S)-8-fluoro-5-oxa-2-azabicyclo[5.1.0]octan-2-yl)-2-(((2R,7aS)-2-fluorotetrahydro-1H-pyrrolizin-7a(5H)-yl)methoxy-d2)-8-vinylpyrido[4,3-d]pyrimidin-7-yl)naphthalen-2-amine]

Same assay, conditions: Homo sapiens, NCI-H441, pERK HTRF, NCI-H441 cells (KRAS G12V)

IC50	SMILES
< 50 nM	C#Cc1c(F)ccc2cc(O)cc(-c3ncc4c(N5CCC6CC6CC5)nc(OC[C@@]56CCCN5C[C@H](F)C6)nc4c3F)c12 (stereo partly drawn) [Example 3, 4-(4-(4-Azabicyclo[5.1.0]octan-4-yl)-8-fluoro-2-(((2R,7aS)-2-fluorotetrahydro-1H-pyrrolizin-7a(5H)-yl)methoxy)pyrido[4,3-d]pyrimidin-7-yl)-5-ethynyl-6-fluoronaphthalen-2-ol]
< 50 nM	[2H]C([2H])(Oc1nc(N2CCCC[C@H]3[C@H](F)[C@H]32)c2cnc(-c3cccc4ccc(F)c(C#C)c34)c(F)c2n1)[C@@]12CCCN1C[C@H](F)C2 [Example 78, 7-(8-Ethynyl-7-fluoronaphthalen-1-yl)-8-fluoro-4-((1S,7R,8S)-8-fluoro-2-azabicyclo[5.1.0]octan-2-yl)-2-(((2R,7aS)-2-fluorotetrahydro-1H-pyrrolizin-7a(5H)-yl)methoxy-d2)pyrido[4,3-d]pyrimidine]
< 50 nM	[2H]C([2H])([2H])Oc1c(F)c(F)c(F)c2cc(N)cc(-c3ncc4c(N5CCOC[C@H]6[C@H](F)[C@H]65)nc(OC([2H])([2H])[C@@]56CCCN5C[C@H](F)C6)nc4c3F)c12 [Example 41, 6,7,8-Trifluoro-4-(8-fluoro-4-((1S,7S,8S)-8-fluoro-5-oxa-2-azabicyclo[5.1.0]octan-2-yl)-2-(((2R,7aS)-2-fluorotetrahydro-1H-pyrrolizin-7a(5H)-yl)methoxy-d2)pyrido[4,3-d]pyrimidin-7-yl)-5-(methoxy-d3)naphthalen-2-amine]
50 to 500 nM	[2H]C([2H])(Oc1nc(N2CCOC[C@@H]3[C@@H](F)[C@@H]32)c2cnc(-c3cc(N)cc4cc(F)c(F)c(C#C)c34)c(F)c2n1)[C@@]12CCCN1C[C@H](F)C2 [Example 27, 5-Ethynyl-6,7-difluoro-4-(8-fluoro-4-((1R,7R,8R)-8-fluoro-5-oxa-2-azabicyclo[5.1.0]octan-2-yl)-2-(((2R,7aS)-2-fluorotetrahydro-1H-pyrrolizin-7a(5H)-yl)methoxy-d2)pyrido[4,3-d]pyrimidin-7-yl)naphthalen-2-amine]
